According to US20240279217A1, “Heterocyclic compounds for the treatment of tuberculosis” (TECNIMEDE - SOCIEDADE TÉCNICO-MEDICINAL, SA, priority 2021, published 2024):
Converted amounts (≈) assume the structure as drawn.

Columns and labels:
[1] = system: HepG2 cell line; test: In vitro cytotoxicity assay (MTS tetrazolium reduction); format: cell-based; conditions: HepG2, 48 h
Method: In an embodiment, in vitro cytotoxicity assay was carried out. In vitro cytotoxicity assay was performed in HepG2 cell line using a tetrazolium reduction assay for cell viability evaluation (MTS reduction as described by Cory A. et al (Cancer Commun. 1991, 3 (7), 207-212)). The assay was performed in 96-well plates for 48 h at 37° C. and 5% CO2 in incubation medium (low glucose DMEM with Glutamax, 10% FBS, 1% Pen/Strep and DMSO). Cells were exposed to 8 different compound concentrations in successive dilutions (usually, base 2), plus a positive control (a compound in a concentration known to decrease cell viability above 50%) and a negative control (incubation medium). Six replicate wells were assayed for each condition. Compound stock solutions were prepared in DMSO at 20 mM, whenever possible, filter sterilized, aliquoted and stored at −20° C. The maximum compound concentrations tested depend on its solubility in incubation medium, and on the maximum DMSO percentage allowable without loss of cell viability. At the end of the incubation period, tetrazolium reagent was added (CellTiter 96′ AQueous Solution from Promega); cells were incubated for another 3 hours in order to promote tetrazolium reduction to formazan by viable cells. The amount of soluble formazan produced was evaluated by 490 nm absorbance reading in a spectrophotometer plate reader. […] Whenever possible, IC50 was calculated as the concentration of compound that reduces cell viability by 50%.

[2] = Distribution coefficient (Log D) determination, octanol/PBS pH 7.4; format: physicochemical; conditions: octanol / phosphate buffer saline pH 7.4
Method: In an embodiment, distribution coefficient (Log D) determination assay was carried out. Test compounds were incubated in Eppendorf-type polypropylene microtubes in triplicates: a 5 μL aliquot of a 10 mM DMSO stock of each test compound were added into the previously mutually saturated mixture containing 500 μL of phosphate buffer saline (pH 7.4) and 500 μL of octanol. The solution was allowed to mix in a rotator for 1 hour at 30 rpm. Phase separation was assured by centrifugation. The octanol phase was diluted 100-fold with 40% acetonitrile in water for analysis, and aqueous phase was analysed without dilution. Mebendazole was used as a reference compound. All samples (both phases) were analysed in a Shimadzu VP HPLC system with a reverse phase column, coupled with tandem mass spectrometer API 3000 (PE Sciex). The TurbolonSpray ion source was used in positive ion mode. Acquisition and analysis of the data were performed using Analyst 1.5.2 software. Distribution coefficients of the tested compounds were calculated as the logarithm of the partition ratios (D) in both solvents, according to the equation below.
[formula] • where: So—peak area of the compound in octanol phase • Sp—peak area of the compound in phosphate buffer saline phase

[3] = PAMPA assay, GIT model; format: in vitro ADME; conditions: log Papp; pH 7.4, 50 μM, 4 hours, room temperature
Method: In an embodiment, PAMPA assay was carried. All steps of PAMPA assay were carried out according to pION Inc. PAMPA Explorer™ Manual. The main principle of the assay is the compound incubation in the donor chamber with aqueous buffer, which is separated from the acceptor chamber, with another buffer, by a phospholipid or hydrocarbon membrane fixed on a filter support. After the test, concentrations in the corresponding donor and acceptor chambers are measured and permeability is calculated. GIT model was simulated using GIT-0 phospholipid mix. Verapamil and quinidine (high permeability) and ranitidine (low permeability) were used as reference compounds. All compounds were tested in quadruplicates. […] After incubation, aliquots from both chambers were transferred to optic UV-Vis plates and absorbance was recorded in the range of 202-500 nm in 4 nm steps. Compounds with low UV-Vis signal were evaluated by LC-MS/MS (using a Shimadzu VP HPLC system with a reverse phase HPLC column, coupled with tandem mass spectrometer API 3000 (PE Sciex) and TurbolonSpray ion source used in positive ion mode; acquisition and analysis of the data were performed using Analyst 1.5.2 software (PE Sciex)).
The apparent permeability coefficient was calculated using the formula below. […]
The apparent permeability coefficient was calculated for each compound (log Papp).

[4] = Stability in human plasma (PS) assay; format: in vitro ADME; conditions: 37° C., 120 minutes, read-out: t1/2 (min) hPS
Method: In an embodiment, stability in human plasma (PS) assay was carried out. Test compounds (1 μM, final DMSO concentration 1%) were incubated in 5 aliquots of 70 μL each (one for each time point), in duplicates, at 37° C. with 100 rpm orbital shaking. Five time points over a duration 120 minutes have been analysed. Two reference compounds were analysed in parallel. The reactions were stopped by the addition of 420 μL of acetonitrile-water mixture (90:10) and subsequent plasma proteins sedimentation were achieved by centrifugation. Supernatants were analysed in a Shimadzu VP HPLC system with a reverse phase column, coupled with a tandem mass spectrometer API 3000 (PE Sciex). Both the positive and negative ion modes of the TurbolonSpray ion source were used. Acquisition and analysis of the data were performed using Analyst 1.5.2 software (PE Sciex). The percentage of the test compounds remaining after incubation in plasma and their half-lives (T1/2) were calculated.

[5] = system: H37Rv M. tuberculosis (strain ATCC 25618); test: Mycobacterium tuberculosis susceptibility assay REMA (resazurin microtiter assay); format: cell-based

## COc1cccc2ccc(N3CCC(c4nc(-c5ccc(OC(F)(F)F)cc5)no4)CC3)nc12 [Compound 3, 5-(1-(8-methoxyquinolin-2-yl)piperidin-4-yl)-3-(4-(trifluoromethoxy)phenyl)-1,2,4-oxadiazole]
[1]; Homo sapiens
  IC50: > 100 µM
[1]; Table 2, cytotoxicity, MTS
  IC50: > 100 µM
[2]
  logD: 5.34
[3]
  GIT PAMPA: −4.8 log[10^−6 cm/s]
[4]
  half-life at 1 μM: > 240 min
[5]; Mycobacterium tuberculosis, 144 h, read-out: REMA MIC
  MIC: 7.8 to 15.6 µM (≈ 3.67 to 7.34 µg/mL)
[5]; Table 2, MTB growth REMA, H37Rv, Middlebrook 7H9, 6 days at 37° C.
  REMA MIC: +++ (7.8-15.6)
